Data on seven substances can be found in patent US20050069907A1, “Methods for using double-mutant RNA polymerases with reduced discrimination between non-canonical and canonical nucleoside triphosphates” (priority 2002, published 2005).

Changes are numbered by the printed parent chain.

What all share (format): biochemical
The test system of one series is poly(dC). Nature of the series: Apparent miscoding on homopolymeric template poly(dC). To be noted: for Relative rate of incorporation GTP/ATP / Relative rate of incorporation GTP/CTP / Relative rate of incorporation GTP/UTP / Relative rate of incorporation of rGTP vs non-complementary rNTPs: poly(dC); for Relative rate of incorporation GTP/ATP / Relative rate of incorporation GTP/CTP / Relative rate of incorporation GTP/UTP: Mg^2+ buffer. How it is done: (§1) Transcription reactions: Transcription reactions were carried out in 40 mM Tris-Cl pH 8.0, 15 mM MgCl2, and 5 mM DTT or 20 mM Manganese Citrate pH 8.0, 5 mM DTT at 37° C. Template, polymerase, and NTP concentrations were as indicated in the legends to the figures and tables. Relative activity determinations were made by taking 4 μl aliquots of reactions at 5, 10, and 20 minute time points and spotting on to DE81 filter paper. Unincorporated nucleotides were separated from incorporated nucleotides by washing the filter paper with 0.5 M KH2PO4 pH 7.0 and retained radioactive nucleotide was quantitated with a Molecular Dynamics phosphorimager. To evaluate rNTP/dNTP selectivity, reactions were run with 4 rNTPs and pT75 as template and α-P^32 rNTPs or α-P^32 dNTPs were used to label the transcripts. The relative rate of incorporation of an rNTP vs. its cognate dNTP was determined from the relative percentages of labeled rNTP vs. dNTP incorporated into DE81 retainable RNA at 5, 10, and 20 minute time points. Apparent miscoding frequencies were determined similarly, though in this instance the template was a single-stranded homopolymer and the reaction contained the complementary unlabeled rNTP, and complementary α-P^32 rNTP or one of the 3 non-complementary α-P^32 rNTPs. The relative percentages of labeled complementary vs. non-complementary rNTPs incorporated at 5, 10 and 20 minute time points gave an apparent miscoding rate. The rNTP/dNTP selectivity assay was used to test the following T7 RNAP mutants for effects on substrate discrimination: D537S, D537E, S539A, R5S1S, D552S, R627S, K631S, L637A, Y639S, Y639F, Y639A, G640A, F644A, G645A, Q649S, […], H811S, H811A, D812A, D812E, D812S, D812N, D879E+ΔF882+ΔA883, D879E+A881T+ΔA883, D879E+F884+A885, D879E+F882Y, D879E+ΔA883, D879E+F882W, D879E.
An increase in miscoding would be reflected in an increase in the rate of incorporation of the non-complementary NTP into RNA.
Numbers are averages from 2 experiments and reflect the ratio of the percentages of labeled rNTPs incorporated into RNA in reactions in which unlabeled complementary rNTPs were in great excess (0.5 mM) to labeled complementary or non-complementary rNTPs. Templates were at 0.1 mg/ml. Polymerases were at 10^−8 M in Mg^2+ buffer and 10^−7 M in Mn^2+ buffer.
*The upper number refers to results obtained in Mg^2+ buffer, the lower number to results in Mn^2+ buffer. n.d.: G640A, Y639A, Y639S were poorly active in Mn^2+ buffer, or on poly(dT) under all conditions.

Another series concerns poly(dI)·poly(dC). Nature of the series: Relative activity on poly(dI)·poly(dC). As for the experimental part:
as §1
DNA and RNA synthesis on homopolymeric templates: T7 RNAP will synthesize poly(rG) RNAs on poly(dC) templates (Bonner, et al., 1994; Ikeda and Richardson 1987). The activity of the W.T. and mutant polymerases were measured on poly(dI)-poly(dC) with rGTP, dGTP, dGTP+rGMP (see, Table III).
Numbers give mean and range from 3 experiments. Templates were at 0.2 mg/ml, polymerases at 10^-8 M. Labeling NTPs were α-P^32 rGTP, α-P^32 dGTP, α-P^32 rATP, α-P^32 dATP, as appropriate. rNTPs or rNMPs at 0.5 mM; dNTPs at 1 mM.

Series [1] can be described thus: 2′-group discrimination of M635 mutants. The following applies: wild-type or Y639F T7 RNAP background. How it is done:
Other mutations: It is conceivable that, in the absence of a bound rNTP, a hydrogen bond forms between Y639 and some other active site side chain. The possibility of an interaction between M635 and Y639 was tested since M635 and Y639 are close and M635 approaches the ribose in our models of NTP in T7 RNAP (Huang, et al., submitted for publication). This position is methionine in the T7 RNAP class of RNAPs (McAllister, W.T., 1993), but is either tyrosine or phenylalanine in the homologous DNAPs, and in the DNAP mutants at this site (i.e., positions homologous to position 762 in E. coli DNAP I) that affect dNTP/ddNTP discrimination (Tabor. S., and Richardson, C. C., European patent application, 1994). […] Additional studies will reveal whether these M635 mutations have other effects, such as effects on discrimination at the 3′-position of the sugar, or effects on discrimination with respect to NTPs with other substituents, such as fluorine at the 2′ position of the sugar. Also, studies on similar double mutations at the homologous sites in the homologous class I DNAPs will reveal the effects of such double mutations on discrimination at the 2′- and 3′-positions of the sugar; specifically, these studies will reveal whether class I DNAPs having a phenylalanine at the position homologous to amino acid position 766 in E. coli DNAP I have reduced discrimination for rNTPs if the amino acid is methionine or tyrosine at the position homologous to amino acid position 762 in E. coli DNAP I.

Another series deals with pT75. Briefly: Activity with NTPs containing different 2′-substituents. More on the design: unit not given here. As for the experimental part: Activity was determined with pT75 as template but with one of the rNTPs replaced with a dNTP or a 2′-modified NTP. The labeling NTP was UTP (in reactions with 2′-modified CTPs or ATPs) or CTP (in reactions with 2′-modified UTPs). Y639F and Y639M represent enzymes with substitutions of the wild-type (W.T.) tyrosine at position 639 by phenyalanine (F) or methionine (M), respectively.

Setting [2] is: rGTP, mean and range from 3 experiments.

“G640A: T7 RNAP mutant adjacent to Y639 that does not affect substrate discrimination [reference compound]”: in the series with poly(dC), the “Activity in Mn^2+ buffer, or on poly(dT) under all conditions” value (shortened to “Activity in Mn^2+ buffer, or on poly(dT)”) is given as “poorly active”; the “Relative rate of incorporation GTP/ATP” value came to 388; the “Relative rate of incorporation GTP/CTP” value is recorded as 508; the “Relative rate of incorporation GTP/UTP” value is on record as more than 1320. The “Relative activity on poly(dI)·poly(dC)” value in the series with poly(dI)·poly(dC) (dGTP) is on record as less than 5. In addition, in the series with poly(dI)·poly(dC) (dGTP + rGMP), the “Relative activity on poly(dI)·poly(dC)” value is recorded as less than 5. For the same substance, in the series on poly(dI)·poly(dC) (setting [2]), the “Relative activity on poly(dI)·poly(dC)” value is recorded as 240 (200-270).
On to M635A: T7 RNAP M635 mutant, for which the “2′-group discrimination with respect to dNTPs and rNTPs” value in series [1] is “did not affect 2′-group discrimination”.
On the same count and under the same terms, with M635F: T7 RNAP M635 mutant the entry was “did not affect 2′-group discrimination”; with M635Y: T7 RNAP M635 mutant, “did not affect 2′-group discrimination”.
In the case of “Y639A: poorly active non-conservative tyrosine 639 mutation of T7 RNAP”, in the series with poly(dC), the “Activity in Mn^2+ buffer, or on poly(dT)” value was “poorly active”; the “Relative rate of incorporation of rGTP vs non-complementary rNTPs” value stood at 184 fold; the “Relative rate of incorporation GTP/ATP” value is on record as more than 184; the “Relative rate of incorporation GTP/CTP” value is reported as more than 184. In the series on poly(dC), the “Relative rate of incorporation GTP/UTP” value is more than 184. Besides, in the series with poly(dI)·poly(dC) (dGTP), the “Relative activity on poly(dI)·poly(dC)” value was 5.3 (4.8-5.5). In addition, the “Relative activity on poly(dI)·poly(dC)” value in the series on poly(dI)·poly(dC) (dGTP + rGMP) is recorded as 25 (17-30). For the same substance, the “Relative activity on poly(dI)·poly(dC)” value in the series with poly(dI)·poly(dC) (setting [2]) was 145 (142-151).
As to “Y639M: T7 RNAP with tyrosine at position 639 substituted by methionine”, the Activity in the series with pT75 (2′-F-ATP replacing ATP) is 9.7 ± .20; in the series with pT75 (2′-F-CTP replacing CTP) it was 47 ± .70; in the series with pT75 (2′-F-UTP replacing UTP), 23 ± .72; in the series with pT75 (2′-NH2-ATP replacing ATP) it was “.92 ± .035”; with pT75 (2′-NH2-CTP replacing CTP) it was 21 ± .38; in the series on pT75 (2′-NH2-UTP replacing UTP), 3.6 ± .19. Besides, the Activity is reported as 3.2 ± .11 with pT75 (2′-dATP replacing ATP); 32 ± 1.1 in the series with pT75 (2′-dCTP replacing CTP); 11 ± .46 in the series with pT75 (2′-dUTP replacing UTP); 51 ± 1.3 in the series with pT75 (ATP); 54 ± 3.9 in the series on pT75 (CTP); 50 ± 1.2 in the series with pT75 (UTP).
Take “Y639S: poorly active non-conservative tyrosine 639 mutation of T7 RNAP”: in the series with poly(dC), the “Activity in Mn^2+ buffer, or on poly(dT)” value is reported as “poorly active”; the “Relative rate of incorporation of rGTP vs non-complementary rNTPs” value came to 50 fold; the “Relative rate of incorporation GTP/ATP” value is more than 50; the “Relative rate of incorporation GTP/CTP” value is more than 50. In the series on poly(dC), the “Relative rate of incorporation GTP/UTP” value was more than 50. In the series with poly(dI)·poly(dC) (dGTP), the “Relative activity on poly(dI)·poly(dC)” value is given as “.6”. Besides, the “Relative activity on poly(dI)·poly(dC)” value with poly(dI)·poly(dC) (dGTP + rGMP) came to 4.4. The “Relative activity on poly(dI)·poly(dC)” value with poly(dI)·poly(dC) (setting [2]) is recorded as 48 (47-50).
